PubChem BioAssay AID2060886 (Molecular Pharmacology Branch, DTP, NCI, 2025)

System: 653999-131-R-J2-PDC complex spheroids, growth inhibition
Assay: Anticancer human tumor 653999-131-R-J2-PDC patient-derived lung adenocarcinoma cell line growth inhibition [RAS]
Conditions: for IC50: curve of first compound; for viability, T/C: stronger effect = lower value
Summary of the method: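 Multi-cell-type spheroids: tumor cells plus HUVEC endothelial cells and mesenchymal stem cells. RAS-pathway inhibitors were combined with targeted agents, each dosed in half-log steps down from clinical Cmax, or from 10 microM when Cmax was unknown.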
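Note: spheroids exposed to the agents for seven days before the readout.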

**Q.** For `CC1(C)CCC(Nc2ncc(C(F)(F)F)c(-c3c[nH]c4c(P(C)(C)=O)c(C#N)ccc34)n2)CN1` (centres undefined) + CCn1c(-c2cccnc2C(C)OC)c2c3cc(ccc31)N1CCOC(CC(NC(=O)C(C(C)C)N(C)C(=O)C3(F)CCN(C(=O)C#CC(C)(C)N(C)C)CC3)C(=O)N3CCCC(N3)C(=O)OCC(C)(C)C2)C1, which IC50 (second compound 0.000949 µM) is on record?
**A.** Its IC50 is greater than 0.3 µM.

**Q.** And the IC50 (second compound 0.003 µM)?
**A.** Its IC50 is greater than 0.3 µM.

**Q.** What about the IC50 (second compound 0.00949 µM) of the same molecule?
**A.** Its IC50 is greater than 0.3 µM.

**Q.** What about the IC50 (second compound 0.03 µM) of the same molecule?
**A.** The IC50 was greater than 0.3 µM.

**Q.** And the IC50 (second compound 0.0949 µM)?
**A.** The IC50 was greater than 0.3 µM.

**Q.** What about the IC50 (second compound 0.3 µM) of the same molecule?
**A.** Its IC50 is greater than 0.3 µM.

**Q.** What about the viability, T/C (second compound 0.000949 µM, first compound 0.000949 µM) of the same molecule?
**A.** The viability, T/C was 89.4%.

**Q.** And the viability, T/C (second compound 0.000949 µM, first compound 0.003 µM)?
**A.** Its viability, T/C is 82.6%.

**Q.** And the viability, T/C (second compound 0.000949 µM, first compound 0.00949 µM)?
**A.** Its viability, T/C is 81.1%.

**Q.** What about the viability, T/C (second compound 0.000949 µM, first compound 0.03 µM) of the same molecule?
**A.** The viability, T/C was 79.7%.

**Q.** And the viability, T/C (second compound 0.000949 µM, first compound 0.0949 µM)?
**A.** The viability, T/C was 84.6%.

**Q.** And the viability, T/C (second compound 0.000949 µM, first compound 0.3 µM)?
**A.** The viability, T/C was 71.6%.

**Q.** What about the viability, T/C (second compound 0.003 µM, first compound 0.000949 µM) of the same molecule?
**A.** The viability, T/C was 96%.

**Q.** And the viability, T/C (second compound 0.003 µM, first compound 0.003 µM)?
**A.** Its viability, T/C is 84.2%.

**Q.** And the viability, T/C (second compound 0.003 µM, first compound 0.00949 µM)?
**A.** The viability, T/C was 79.5%.

**Q.** And the viability, T/C (second compound 0.003 µM, first compound 0.03 µM)?
**A.** The viability, T/C was 77.7%.

**Q.** And the viability, T/C (second compound 0.003 µM, first compound 0.0949 µM)?
**A.** The viability, T/C was 84.9%.

**Q.** What about the viability, T/C (second compound 0.003 µM, first compound 0.3 µM) of the same molecule?
**A.** The viability, T/C was 71.2%.

**Q.** And the viability, T/C (second compound 0.00949 µM, first compound 0.000949 µM)?
**A.** The viability, T/C was 99.5%.

**Q.** What about the viability, T/C (second compound 0.00949 µM, first compound 0.003 µM) of the same molecule?
**A.** The viability, T/C was 89.3%.

**Q.** And the viability, T/C (second compound 0.00949 µM, first compound 0.00949 µM)?
**A.** The viability, T/C was 84.9%.

**Q.** What about the viability, T/C (second compound 0.00949 µM, first compound 0.03 µM) of the same molecule?
**A.** Its viability, T/C is 72%.

**Q.** And the viability, T/C (second compound 0.00949 µM, first compound 0.0949 µM)?
**A.** The viability, T/C was 79.3%.

**Q.** What about the viability, T/C (second compound 0.00949 µM, first compound 0.3 µM) of the same molecule?
**A.** Its viability, T/C is 87.2%.

**Q.** What about the viability, T/C (second compound 0.03 µM, first compound 0.000949 µM) of the same molecule?
**A.** The viability, T/C was 85.4%.

**Q.** What about the viability, T/C (second compound 0.03 µM, first compound 0.003 µM) of the same molecule?
**A.** The viability, T/C was 83.9%.

**Q.** And the viability, T/C (second compound 0.03 µM, first compound 0.00949 µM)?
**A.** The viability, T/C was 71%.

**Q.** And the viability, T/C (second compound 0.03 µM, first compound 0.03 µM)?
**A.** Its viability, T/C is 74.1%.

**Q.** What about the viability, T/C (second compound 0.03 µM, first compound 0.0949 µM) of the same molecule?
**A.** The viability, T/C was 77.4%.

**Q.** And the viability, T/C (second compound 0.03 µM, first compound 0.3 µM)?
**A.** The viability, T/C was 76.9%.

**Q.** And the viability, T/C (second compound 0.0949 µM, first compound 0.000949 µM)?
**A.** Its viability, T/C is 80.4%.

**Q.** And the viability, T/C (second compound 0.0949 µM, first compound 0.003 µM)?
**A.** Its viability, T/C is 66.8%.

**Q.** What about the viability, T/C (second compound 0.0949 µM, first compound 0.00949 µM) of the same molecule?
**A.** The viability, T/C was 67.5%.

**Q.** And the viability, T/C (second compound 0.0949 µM, first compound 0.03 µM)?
**A.** The viability, T/C was 68%.

**Q.** And the viability, T/C (second compound 0.0949 µM, first compound 0.0949 µM)?
**A.** The viability, T/C was 74%.

**Q.** And the viability, T/C (second compound 0.0949 µM, first compound 0.3 µM)?
**A.** Its viability, T/C is 70.3%.

**Q.** And the viability, T/C (second compound 0.3 µM, first compound 0.000949 µM)?
**A.** Its viability, T/C is 82.3%.

**Q.** What about the viability, T/C (second compound 0.3 µM, first compound 0.003 µM) of the same molecule?
**A.** The viability, T/C was 71.7%.

**Q.** What about the viability, T/C (second compound 0.3 µM, first compound 0.00949 µM) of the same molecule?
**A.** Its viability, T/C is 63.8%.

**Q.** And the viability, T/C (second compound 0.3 µM, first compound 0.03 µM)?
**A.** The viability, T/C was 63.9%.

**Q.** And the viability, T/C (second compound 0.3 µM, first compound 0.0949 µM)?
**A.** The viability, T/C was 70.8%.

**Q.** And the viability, T/C (second compound 0.3 µM, first compound 0.3 µM)?
**A.** The viability, T/C was 64.5%.

**Q.** Which results are given for `Cc1nc(N2CCC3(CC2)COC(C)C3N)c(CO)nc1Sc1ccnc(N)c1Cl` (centres undefined) + C#Cc1c(F)ccc2cc(O)cc(-c3ncc4c(N5CC6CCC(C5)N6)nc(OCC56CCCN5CC(F)C6)nc4c3F)c12?
**A.** IC50 (second compound 0.0316 µM): > 10 µM; IC50 (second compound 0.1 µM): > 10 µM; IC50 (second compound 0.316 µM): > 10 µM; IC50 (second compound 1 µM): 0.193 µM; IC50 (second compound 3.16 µM): < 0.0316 µM; IC50 (second compound 10 µM): < 0.0316 µM; viability, T/C (second compound 0.0316 µM, first compound 0.0316 µM): 89.8%; viability, T/C (second compound 0.0316 µM, first compound 0.1 µM): 88.9%; viability, T/C (second compound 0.0316 µM, first compound 0.316 µM): 74.5%; viability, T/C (second compound 0.0316 µM, first compound 1 µM): 69.2%; viability, T/C (second compound 0.0316 µM, first compound 3.16 µM): 73.2%; viability, T/C (second compound 0.0316 µM, first compound 10 µM): 76.2%; viability, T/C (second compound 0.1 µM, first compound 0.0316 µM): 65.3%; viability, T/C (second compound 0.1 µM, first compound 0.1 µM): 62.1%; viability, T/C (second compound 0.1 µM, first compound 0.316 µM): 66%; viability, T/C (second compound 0.1 µM, first compound 1 µM): 60%; viability, T/C (second compound 0.1 µM, first compound 3.16 µM): 64.3%; viability, T/C (second compound 0.1 µM, first compound 10 µM): 55.2%; viability, T/C (second compound 0.316 µM, first compound 0.0316 µM): 68.4%; viability, T/C (second compound 0.316 µM, first compound 0.1 µM): 52.6%; viability, T/C (second compound 0.316 µM, first compound 0.316 µM): 50.5%; viability, T/C (second compound 0.316 µM, first compound 1 µM): 45.9%; viability, T/C (second compound 0.316 µM, first compound 3.16 µM): 74.5%; viability, T/C (second compound 0.316 µM, first compound 10 µM): 47.9%; viability, T/C (second compound 1 µM, first compound 0.0316 µM): 61.8%; viability, T/C (second compound 1 µM, first compound 0.1 µM): 52.9%; viability, T/C (second compound 1 µM, first compound 0.316 µM): 48.5%; viability, T/C (second compound 1 µM, first compound 1 µM): 41.1%; viability, T/C (second compound 1 µM, first compound 3.16 µM): 30.5%; viability, T/C (second compound 1 µM, first compound 10 µM): 30.2%; viability, T/C (second compound 3.16 µM, first compound 0.0316 µM): 41.9%; viability, T/C (second compound 3.16 µM, first compound 0.1 µM): 35.4%; viability, T/C (second compound 3.16 µM, first compound 0.316 µM): 32.2%; viability, T/C (second compound 3.16 µM, first compound 1 µM): 21.8%; viability, T/C (second compound 3.16 µM, first compound 3.16 µM): 17.3%; viability, T/C (second compound 3.16 µM, first compound 10 µM): 20.2%; viability, T/C (second compound 10 µM, first compound 0.0316 µM): 27%; viability, T/C (second compound 10 µM, first compound 0.1 µM): 13.9%; viability, T/C (second compound 10 µM, first compound 0.316 µM): 18.9%; viability, T/C (second compound 10 µM, first compound 1 µM): 11%; viability, T/C (second compound 10 µM, first compound 3.16 µM): 8.6%; viability, T/C (second compound 10 µM, first compound 10 µM): 9.77%
